# Source: patent US9079899B2, “Anti-staphylococcal celecoxib derivatives” (THE OHIO STATE UNIVERSITY, priority 2010, dated 2015)
# Entries after “also recorded” stand apart in the source; their conditions may differ. Like-named read-outs stand apart in the source and are kept apart here.
# How the values were obtained:
# S. aureus (ATCC 29213) = assay: MIC, broth microdilution; format: cell-based; settings: Staphylococcus aureus
# [1] = system: S. epidermidis (ATCC 35984); assay: MIC, broth microdilution; format: cell-based; settings: Staphylococcus epidermidis
# [2] = system: HT-29 human colon adenocarcinoma cells; assay: Antiproliferative assay (MTT); format: cell-based; settings: for IC50: Homo sapiens, HT-29, 24-h exposure, 10% FBS-supplemented RPMI 1640, MTT; for Selectivity ratio: IC50 (HT-29) / MIC against S. aureus
# Procedure: As celecoxib has been reported to be cytotoxic to cancer cells, the growth inhibitory activities of celecoxib and selected derivatives were assessed in. HT-29 human colon adenocarcinoma cells after 24-h exposure in 10% FBS-supplemented RPMI 1640 medium.
# Antiproliferative assay. The cytotoxicity of individual test agents in HT-29 human colon adenocarcinoma cells was evaluated by using the 3-(4,5-dimethylthiazol-2-yl)-2,5-diphenyltetrazolium (MTT) assay. Briefly, HT-29 cells were seeded into 96-well plates at 1×10^4 cells/well (with a minimum of 6 wells per test condition) in RPMI 1640 medium supplemented with 10% FBS and 10 μg/ml of gentamicin. After overnight incubation at 37° C. under 5% CO2, the medium from each well was removed and replenished with fresh aliquots of the same medium containing various concentrations of test agents dissolved in DMSO (final concentration, 0.1%). Control cells were treated with DMSO alone at a concentration equal to that in drug-treated cells. After 24 h of drug exposure, the medium was removed and replaced by 100 μl of 0.5 mg/ml MTT in 10% FBS-containing medium, and the cells were incubated in the CO2 incubator at 37° C. for 2 h. Subsequently, medium was removed from each well, and the reduced MTT dye was dissolved with 100 μl of DMSO per well. Absorbance at 570 nm was measured with a plate reader. The 50% inhibitory concentration (IC50) of each drug was determined from dose-response curves by using CalcuSyn software (Biosoft, Cambridge, United Kingdom).
# S. aureus = assay: CFU of S. aureus after exposure to celecoxib at the MIC; format: cell-based; settings: at the MIC of 32 μg/ml, after 24 h
# Excerpt: The inventors examined the suppressive effect of celecoxib on the growth of S. aureus (ATCC 29213), S. epidermidis (ATCC 35984), and two different strains of MRSA (ATCC 33592 and SCCmec VT), as shown in Table IX.
# MRSA (ATCC 33592) = assay: MIC, broth microdilution; format: cell-based, methicillin-resistant Staphylococcus aureus; settings: Staphylococcus aureus; read-out: MIC MRSA (ATCC 33592)
# three strains of MRSA = assay: MIC, text statements on the three strains of MRSA together; format: cell-based, methicillin-resistant Staphylococcus aureus; settings: Staphylococcus aureus, read-out: MIC against MRSA
# Procedure: Antibacterial assays. The MIC of each agent was determined following the guidelines for the broth microdilution method recommended by the Clinical and Laboratory Standards Institute. Wikler, M. A. Performance Standards for Antimicrobial Susceptibility Testing; Eighteenth Informational Supplement Clinical and Laboratory Standards Institute: 2008. Briefly, bacteria grown overnight on Luria Bertani (LB) agar plates were suspended in phosphate-buffered saline (PBS) to an O.D. of 1.0 at 600 nm, which was equivalent to 2×10^9 CFU/ml, and then diluted in CAMHB to a final concentration of 5×10^5 CFU/ml. […] The MIC of each agent was defined as the lowest concentration at which no growth of bacteria was observed.
# MRSA ATCC 33592 = assay: Time-kill assay; format: cell-based, methicillin-resistant Staphylococcus aureus; settings: for reduction in CFU: after 24-h exposure to 8 times the MIC, CAMHB
# Procedure: Numbers of viable bacteria in the broth after each exposure period were enumerated by CFU assay, and the results expressed as CFU/ml. Points indicate means, and bars indicate SD (n=3). The dashed line represents 99.9% cell killing. Ctl, control.
# Otherwise, it is considered bacteriostatic. Pankey, G. A.; Sabath, L. D. Clin. Infect. Dis., 38, 864-870 (2004). To category these novel agents, represented by compounds 9, 36, and 46, in this regard, their time-killing kinetics were assessed in MRSA ATCC 33592 over a 24-h treatment period. Overnight-grown bacteria were inoculated in cation-adjusted Muller Hinton broth (CAMHB) at a concentration of 5×10^5 CFU/ml followed by exposure to individual compounds at 2- to 8-fold their respective MIC values. […] Accordingly, compounds 36 and 46 were classified as bactericidal. As the killing was time-dependent, the antibacterial effect of these agents was not caused by the disruption of membrane integrity.
# Time-kill assay. To analyze the kinetics of bacterial cell killing, MRSA ATCC 33592 cells at a density of 5×10^5 CFU/ml were treated with test agents at 2-, 4-, and 8-fold MICs in triplicate in 24-well plates. Bacterial survival in medium containing DMSO at a concentration equal to that used for drug-treated bacteria served as control. At different times after the start of drug exposure, a 100 μl aliquot of the bacterial suspension was taken from each well and serially diluted with PBS. The diluted samples were spread onto LB agar plates followed by incubation at 37° C. for 16 h. The bacterial colonies on each plate were enumerated, and the number of viable bacteria in each well was expressed as CFU per milliliter.
# MRSA (SCCmec VT) = assay: MIC, broth microdilution; format: cell-based, methicillin-resistant Staphylococcus aureus
# [3] = system: S. lugdunesis (NTUH isolate); assay: MIC, broth microdilution; format: cell-based; settings: read-out: MIC S. lugdunesis (NTUH isolate)
# S. aureus (ATCC 12598) = assay: MIC, broth microdilution; format: cell-based; settings: Staphylococcus aureus, ATCC12598
# [4] = system: S. epidermidis (ATCC 12228); assay: MIC, broth microdilution; format: cell-based; settings: Staphylococcus epidermidis, ATCC12228
# MRSA (ATCC 49476) = assay: MIC, broth microdilution; format: cell-based, methicillin-resistant Staphylococcus aureus; settings: Staphylococcus aureus
# MRSA 33592 = assay: Survival of MRSA-infected mice; format: in vivo, C57BL/6 mice; settings: once, 1 h postinfection, 5×10^7 CFU i.p.
# Procedure: (A) Effect of intraperitoneal administration of Cpd-36 and Cpd-46 on survival of methicillin-resistant Staphylococcus aureus-infected mice. C57BL/6 mice were inoculated intraperitoneally with 5×10^7 CFU of MRSA 33592. At 1 h postinfection, mice were treated intraperitoneally once with vehicle, Cpd-36 or Cpd-46 at 30 mg/kg (B) Effect of oral administration of Cpd-46 on survival of MRSA 33592-infected mice. One hour after intraperitoneal inoculation with 5×10^7 CFU of MRSA 33592, C57BL/6 mice were treated orally once with Cpd-46 at 100 mg/kg or vehicle. Survival data are presented as Kaplan-Meier survival curves for each treatment group (n=5). The difference in the mean survival times of the groups was statistically significant at P values of 0.05.
# [5] = system: S. haemolyticus (ATCC 29970); assay: MIC, broth microdilution; format: cell-based; settings: Staphylococcus haemolyticus, ATCC29970
# S. hominis (ATCC 27844) = assay: MIC, broth microdilution; format: cell-based; settings: Staphylococcus hominis, ATCC27844
# [6] = system: S. saprophyticus (ATCC 15305); assay: MIC, broth microdilution; format: cell-based; settings: Staphylococcus saprophyticus, ATCC15305
# [7] = ATCC29213, 24 h, CAMHB, 24 h, 37° C., read-out: MIC S. aureus (ATCC 29213)
# [8] = ATCC35984, 24 h, CAMHB, 24 h, 37° C., read-out: MIC S. epidermidis (ATCC 35984)
# [9] = Table XIII, S. aureus (SSCmecVT)
# [10] = Staphylococcus aureus, MRSA, read-out: MIC MRSA (SCCmec VT)
Compound,IC50 [2] [µg/mL],MIC (S. aureus (ATCC 29213); [7]) [µg/mL],"MIC [1, 8] [µg/mL]",MIC (MRSA (ATCC 33592)) [µg/mL],MIC (MRSA (SCCmec VT); [10]) [µg/mL],MIC [4] [µg/mL],MIC (MRSA (ATCC 49476)) [µg/mL],reduction in CFU (MRSA ATCC 33592) [%],MIC (MRSA (SCCmec VT); [9]) [µg/mL],Selectivity ratio [2],also measured
"Cc1ccc(-c2cc(C(F)(F)F)nn2-c2ccc(S(N)(=O)=O)cc2)cc1 [Celecoxib, celecoxib]",18,–,–,–,–,–,–,–,–,–,"MIC (S. aureus (ATCC 29213); ATCC29213, Table IX, S. aureus (ATCC 29213), read-out: MIC): 32 µg/mL; MIC ([1]; ATCC35984, Table IX, S. epidermidis (ATCC 35984), read-out: MIC): 16 µg/mL; decrease in CFU relative to control (S. aureus): 6 log"
"NC(=O)c1ccc(-n2nc(C(F)(F)F)cc2-c2c3ccccc3cc3ccccc23)cc1 [Compound 9, 4-(5-Anthracen-9-yl-3-trifluoromethyl-pyrazol-1-yl)-benzamide]",12,≤ 2,≤ 2,2,–,–,–,99.14,–,–,MIC (three strains of MRSA): 0.5 to 2 µg/mL; dose-dependent effect on cell killing (MRSA ATCC 33592; range of 2×-8×MIC): did not show a dose-dependent effect
"NS(=O)(=O)Nc1ccc(-n2nc(C(F)(F)F)cc2-c2ccc3c(ccc4ccccc43)c2)cc1 [Compound 36, N-[4-(5-Phenanthren-2-yl-3-trifluoromethyl-pyrazol-1-yl)-phenyl]-aminosulfonamide]",12,≤ 2,≤ 2,–,–,–,–,99.91,1,12,MIC [3]: 2 µg/mL

# More lines, main results first:
IC50 [2] [µg/mL],MIC (S. aureus (ATCC 29213); [7]) [µg/mL],"MIC [1, 8] [µg/mL]",MIC (MRSA (ATCC 33592)) [µg/mL],MIC (MRSA (SCCmec VT); [10]) [µg/mL],MIC [4] [µg/mL],MIC (MRSA (ATCC 49476)) [µg/mL],Compound,reduction in CFU (MRSA ATCC 33592) [%],MIC (MRSA (SCCmec VT); [9]) [µg/mL],Selectivity ratio [2],also measured
28,4,4,4,4,4,4,"Cc1ccc(-c2cc(C(F)(F)F)nn2-c2ccc(NS(N)(=O)=O)cc2)cc1 [Compound 41, N-[4-(5-p-Tolyl-3-trifluoromethyl-pyrazol-1-yl)-phenyl]-aminosulfonamide]",–,–,–,MIC (S. aureus (ATCC 12598)): 4 µg/mL
20,–,–,–,–,–,–,"NS(=O)(=O)Nc1ccc(-n2nc(C(F)(F)F)cc2-c2c3ccccc3cc3ccccc23)cc1 [Compound 46, N-[4-(5-Anthracen-9-yl-3-trifluoromethyl-pyrazol-1-yl)-phenyl]-aminosulfonamide]",99.99,0.5,40,"classification bactericidal / bacteriostatic (MRSA ATCC 33592; bactericidal = 99.9% reduction in inoculum within 24 h): bactericidal; also recorded: bacteriostatic; survival of MRSA-infected mice (MRSA 33592; intraperitoneal, 30 mg/kg): improve the survival; survival of MRSA-infected mice (MRSA 33592; oral, 100 mg/kg): improve the survival"
11,–,–,2,2,2,2,"NS(=O)(=O)Nc1ccc(-n2nc(C(F)(F)F)cc2-c2ccc3cc4ccccc4cc3c2)cc1 [Compound 47, N-[4-(5-Anthracen-2-yl-3-trifluoromethyl-pyrazol-1-yl)-phenyl]-aminosulfonamide]",–,–,–,MIC [5]: 16 µg/mL; MIC (S. hominis (ATCC 27844)): 2 µg/mL; MIC [6]: 8 µg/mL
